For series [1] the following is noted: cited from earlier work.
The subject of series [2] is brain-dead, heart-beating cadaver of a pig. Nature of the series: Blood pressure and organ maintenance in brain-dead, heart-beating pig under intravenous infusion. Format: in vivo. The protocol: The following ingredients: 1 mg (1 ml) adrenaline, 1 mg (1 ml) nor-adrenaline, 0.3 mg (3 ml) T3, 300 mg (3 ml) cortisone, […] (9 ml) Minirin and 1 mg (3 ml) cocaine were dissolved in 50 ml physiological sodium chloride solution.
For reducing the risk of diabetes insipidus, a bolus of […] Minirin was given at the start of the treatment.
The inventor has performed more than 20 experiments with pigs and using cocaine in combination with adrenaline and nor-adrenaline.
FIG. 4 is a diagram over blood pressure during an experiment similar to Experiment 1.

Series [3] concerns the target NET (nor-epinephrine transporter) (Homo sapiens, UniProt P23975). The settings on record: cited from earlier work.
The test system of another series is alfa-1. Nature of the series: Potency as replacement of nor-adrenaline (alfa-1-agonist). The text has this:
In some embodiments, the adrenaline and/or nor-adrenaline may be partly or entirely replaced by an equivalent substance. For example, phenylephrine is an alfa-1-agonist and may replace nor-adrenaline.

The conditions of series [4]: in vivo; cited from earlier work.

This is an account of results in patent publication US20110281794A1, “C[…]-[…] A[…] ADM[…] A BRAIN-DEAD, HEART-BEATING POTENTIAL ORGAN DONOR” (VIVOLINE MEDICAL AB, priority 2008, published 2011).

Sequence of NET (nor-epinephrine transporter) (P23975 whole entry, species assumed): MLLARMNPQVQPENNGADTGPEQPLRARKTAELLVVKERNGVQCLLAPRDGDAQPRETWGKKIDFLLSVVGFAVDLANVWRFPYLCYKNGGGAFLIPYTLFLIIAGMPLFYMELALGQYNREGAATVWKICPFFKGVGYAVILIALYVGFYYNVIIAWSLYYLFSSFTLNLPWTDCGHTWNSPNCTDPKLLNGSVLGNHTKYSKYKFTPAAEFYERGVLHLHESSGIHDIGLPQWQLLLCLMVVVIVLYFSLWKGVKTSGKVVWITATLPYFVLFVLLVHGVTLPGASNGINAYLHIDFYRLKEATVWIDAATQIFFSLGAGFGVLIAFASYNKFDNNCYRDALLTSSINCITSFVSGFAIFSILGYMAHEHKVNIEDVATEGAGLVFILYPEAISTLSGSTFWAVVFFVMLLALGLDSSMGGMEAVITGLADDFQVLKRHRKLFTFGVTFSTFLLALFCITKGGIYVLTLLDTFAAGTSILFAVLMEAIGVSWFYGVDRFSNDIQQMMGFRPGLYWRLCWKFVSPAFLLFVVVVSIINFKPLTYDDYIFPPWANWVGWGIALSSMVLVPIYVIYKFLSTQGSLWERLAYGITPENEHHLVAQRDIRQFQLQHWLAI

For `CNCCCN1c2ccccc2CCc2ccccc21` [desipramine], the half-life time in series [1] was 30 h. For the same compound, in series [2] (Experiment 2, infusion 1.7 to 3.2 ml/hour with adrenaline and nor-adrenaline, from a mean pressure of about 40 mmHg), the “mean pressure reached on infusion” value was determined as 80 mmHg. Also, the “blood pressure after infusion rate was decreased” value in series [2] (Experiment 2, infusion rate decreased to 2.5 and 1.7 ml/hour, never decreased further) is given as “about 60 mmHg”. As to `COC(=O)[C@H]1[C@@H](OC(=O)c2ccccc2)C[C@@H]2CC[C@H]1N2C` [cocaine, benzoylmethyl ecgonine], in series [2] (added together with nor-adrenaline, compared with cocaine), the “potentiation of the effect of blood circulating nor-adrenaline (vasoconstriction)” value is “much lower levels of nor-adrenaline”. Besides, the “blood pressure maintained at a constant level” value in series [2] (more than 20 experiments with pigs, in combination with adrenaline and nor-adrenaline, over 24 hours) is recorded as 70 mmHg. As to `CNCCCC1c2ccccc2C=Cc2ccccc21` [Protriptylin], the “potency among NET inhibitors” value in series [3] was “highest”. `NC(=O)CC[C@@H]1NC(=O)[C@H](Cc2ccccc2)NC(=O)[C@H](Cc2ccc(O)cc2)NC(=O)[C@@H](N)CSSC[C@@H](C(=O)N2CCC[C@H]2C(=O)N[C@@H](CCCN=C(N)N)C(=O)NCC(N)=O)NC(=O)[C@H](CC(N)=O)NC1=O` [ADH]: in series [1], the half-life-time entry is “about 15 minutes”. With `CNCCCN1c2ccccc2CCc2ccc(Cl)cc21` [Norclomipramine], the “potency among NET inhibitors” value in series [3] is given as “highest”. As for `CC(N)Cc1ccccc1` (stereo not drawn) [amphetamine, alpha-methylphenethylamine], in series [2] (added at 29.5 hours to infusion solution of Experiment 1 without cocaine, constant until 36 hours), the “increase of mean arterial pressure” value is “about 15 mmHg”. For the compound `CNC[C@H](O)c1cccc(O)c1` [phenylephrine], the “potency relative to nor-adrenaline (times less potent)” value in the series with alfa-1 is reported as “about 5 times”. `CCN(CC)CC(=O)Nc1c(C)cccc1C` [Lidocaine]: the “effect of infusion on blood pressure” value in series [4] was “vasodilatation and a lowering of the blood pressure”.
